Measured values published in PMC8613358, “Next generation Glucose-1-phosphate thymidylyltransferase (RmlA) inhibitors: An extended SAR study to direct future design” (Bioorganic & Medicinal Chemistry, 2021).
≈ marks a conversion by molar mass, not a printed value. Entries after “also recorded” stand apart in the source; their conditions may differ. Where a name gives a salt, the structure may show the parent alone.

Tests used:
[1] = biological target: T1, P. aeruginosa RmlA (Pseudomonas aeruginosa, UniProt Q9HU22); test: In vitro RmlA inhibition assay (BIOMOL Green phosphate detection); format: biochemical; conditions: for inhibition at 10 µM: 10 μM inhibitor, 30 min, room temperature; for inhibition at 10 µM / IC50: 15 nM recombinant RmlA, 5 μM dTTP, 5 μM G-1-P; for LE (Ligand efficiency): LE = pIC50/number of heavy atoms; for LLE (Lipophilic ligand efficiency): LLE = pIC50 – cLogP; for IC50: ± SD, n = 3; for increase in potency compared to 1b: ratio of IC50 values vs 1b
T1 construct: made in house
Protocol: Each assay was performed in a 101 μL reaction volume containing 50 mM Tris (pH 7.4), 5 mM MgCl2, 1 mM dithiothreitol, 0.1 mM EDTA (pH 8.0), 0.1 mM EGTA (pH 8.0), 0.05% NP-40, 15 nM recombinant RmlA, 0.8 μg/ml pyrophosphatase, 5 μM dTTP and 5 μM G-1-P. The inhibitor was added to the plate (20 μL) followed by RmlA (30 μL). The reaction was initiated with the addition of dTTP (25 μL), G-1-P (25 μL) and pyrophosphatase (1 μL) as a mixture in one charge (51 μL total) and the assay was allowed to run for 30 min at room temperature. The reaction was quenched by addition of BIOMOL™ Green reagent (100 μL) and was allowed to develop before the absorbance of each well was measured at 620 nm.

[2] = system: M.tuberculosis (H37Rv); parameters: method as in PMID 23138692; conditions: cited from earlier work

T1 sequence (Q9HU22 1-293): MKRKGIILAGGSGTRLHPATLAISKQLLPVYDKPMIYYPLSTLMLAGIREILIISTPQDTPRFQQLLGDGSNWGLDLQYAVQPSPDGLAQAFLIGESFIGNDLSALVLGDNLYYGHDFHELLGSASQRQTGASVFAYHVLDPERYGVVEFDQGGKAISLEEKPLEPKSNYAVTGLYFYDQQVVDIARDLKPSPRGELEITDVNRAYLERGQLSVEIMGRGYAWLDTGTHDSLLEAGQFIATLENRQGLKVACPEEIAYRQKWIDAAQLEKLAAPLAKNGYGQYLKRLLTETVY

Row | Compound | melting point [°C] | inhibition at 10 µM [1] [%] | LE (Ligand efficiency) [1] | LLE (Lipophilic ligand efficiency) [1] | IC50 [1] [µM] | increase in potency compared to 1b [1] [fold] | activity against P. aeruginosa RmlA (in words) [1] | MIC100 (M. tuberculosis) [2] [µg/mL]
1 | CNCCNc1c(N(C)S(=O)(=O)c2ccccc2)c(=O)[nH]c(=O)n1Cc1ccc(Br)cc1 (as salt: TFA) [Compound 1c, N-(1-(4-bromobenzyl)-6-((2-(methylamino)ethyl)amino)-2,4-dioxo-1,2,3,4-tetrahydropyrimidin-5-yl)-N-methylbenzenesulfonamide] | 283 to 286 | – | – | – | – | – | – | –
2 | CNCCCNc1c(N(C)S(=O)(=O)c2ccccc2)c(=O)[nH]c(=O)n1Cc1ccc(Br)cc1 [Compound 1b, N-(1-(4-bromobenzyl)-6-((3-(methylamino)propyl)amino)-2,4-dioxo-1,2,3,4-tetrahydropyrimidin-5-yl)-N-methylbenzenesulfonamide] | – | 100 | 0.30 | 4.30 | 0.86 ± 0.096 | – | – | –
3 | CNCCCNc1c(N(C)S(=O)(=O)c2ccccc2)c(=O)[nH]c(=O)n1Cc1ccc(Br)cc1 (as salt: TFA) [Compound 1b, N-(1-(4-bromobenzyl)-6-((3-(methylamino)propyl)amino)-2,4-dioxo-1,2,3,4-tetrahydropyrimidin-5-yl)-N-methylbenzenesulfonamide] | 294 to 297 | – | – | – | – | – | – | –
4 | CN(c1c(N)n(Cc2ccc(Br)cc2)c(=O)[nH]c1=O)S(=O)(=O)c1ccccc1 [Compound 1a] | – | 100 | 0.37 | 5.20 | 0.034 ± 0.002 | – | – | –
5 | CN(c1c(NCCCn2cc(CN)nn2)n(Cc2ccccc2)c(=O)[nH]c1=O)S(=O)(=O)c1ccccc1 [Compound 1f] | 295 to 297 | 100 | 0.21 | 4.50 | 2.47 ± 0.02 | – | – | –
6 | CN(c1c(NCCCCN)n(Cc2ccc(Br)cc2)c(=O)[nH]c1=O)S(=O)(=O)c1ccccc1 [Compound 1d, N-(6-((4-aminobutyl)amino)-1-(4-bromobenzyl)-2,4-dioxo-1,2,3,4-tetrahydropyrimidin-5-yl)-N-methylbenzenesulfonamide] | 311 to 313 | 100 | 0.28 | 4.40 | 0.303 ± 0.026 | ~2.5 | – | –
7 | CNCCNc1c(N(C)S(=O)(=O)c2ccccc2)c(=O)[nH]c(=O)n1Cc1ccc(Br)cc1 [Compound 1c, N-(1-(4-bromobenzyl)-6-((2-(methylamino)ethyl)amino)-2,4-dioxo-1,2,3,4-tetrahydropyrimidin-5-yl)-N-methylbenzenesulfonamide] | – | 0 | – | – | – | – | complete loss of activity; also recorded: lost the inhibitory activity | –
8 | CN(c1c(N)n(Cc2ccccc2)c(=O)[nH]c1=O)S(=O)(=O)c1ccccc1 [Compound 8a] | – | – | – | – | – | – | – | 100 (≈ 259 µM)
9 | CN(c1c(NCCCCCN)n(Cc2ccc(Br)cc2)c(=O)[nH]c1=O)S(=O)(=O)c1ccccc1 [Compound 1e, N-(6-((5-aminopentyl)amino)-1-(4-bromobenzyl)-2,4-dioxo-1,2,3,4-tetrahydropyrimidin-5-yl)-N-methylbenzenesulfonamide] | 317 to 319 | 100 | 0.27 | 3.90 | 0.316 ± 0.023 | ~2.5 | – | –
